# How the values were obtained:
# [1] = system: Z α1‐antitrypsin polymers in CHO cells; assay: Soluble and insoluble polymers in CHO cells expressing Z α1‐antitrypsin (NP‐40 fractions, 2C1 immunoprecipitation, immunoblot); format: cell-based; settings: pre‐treatment 48 h with 10 μM GSK716, CHO cells induced with doxycycline
# Description: Figure 2 GSK716 inhibits polymerisation of Z α1‐antitrypsin in cell models of disease • A GSK716 was added to CHO‐TET‐ON‐Z‐A1AT cells (Ordóñez et al, 2013) with simultaneous induction of Z α1‐antitrypsin expression using doxycycline, and polymer load was quantified with the 2C1 monoclonal antibody that is specific to pathological polymers of α1‐antitrypsin (Miranda et al, 2010). […] Data were normalised to vehicle and a control compound from the GSK716 series at saturating concentration. […] It induced an approximately threefold increase in secreted levels of Z α1‐antitrypsin compared with vehicle control. This was apparent even after polymers had been allowed to form. Scale bar: 100 µm. Data presented as mean ± SD, n = 8 (secretion) and n = 6 (polymer inhibition). • E CHO tetracycline‐inducible cells expressing Z α1‐antitrypsin were induced with 0.5 μg/ml doxycycline for 48 h and treated with 10 μM GSK716. […] For every time point, NP‐40‐soluble and NP‐40‐insoluble fractions were separated and immunoprecipitated with the 2C1 mAb and resolved by 4–12% w/v SDS–PAGE and α1‐antitrypsin detected by immunoblotting. […] Cell viability was measured by Cell Counting Kit‐8. […] Samples were resolved by 4–12% w/v acrylamide SDS–PAGE and detected by autoradiography. • H The graphs show the effect of GSK716 on intracellular and extracellular Z α1‐antitrypsin (mean ± SEM, n = 2). […]
# [2] = target: MRGPRX2 (Homo sapiens, UniProt Q96LB1); assay: Off‐target panel: MRGPRX2 Agonist (DRX); format: cell-based; settings: read-out: Mean (PXC50)
# Description: (§1) GSK716 selectivity and PK properties were profiled in order to investigate the suitability of GSK716 for progression into in vivo studies and the potential for taking it forward as a clinical candidate for testing in humans. Since GSK716 results in loss of inhibitory activity of α1‐antitrypsin, the effect of the compound was assessed on other closely related serpins. […] Furthermore, there were no off‐target effects in a panel of assays considered predictive of known safety liabilities that precluded further development of GSK716 (Table EV1).
# [3] = target: T1, Serotonin 5HT3 (Homo sapiens, UniProt P46098); assay: Off‐target panel: Serotonin 5HT3 (DRX); format: cell-based
# T1 sequence (P46098 24-478): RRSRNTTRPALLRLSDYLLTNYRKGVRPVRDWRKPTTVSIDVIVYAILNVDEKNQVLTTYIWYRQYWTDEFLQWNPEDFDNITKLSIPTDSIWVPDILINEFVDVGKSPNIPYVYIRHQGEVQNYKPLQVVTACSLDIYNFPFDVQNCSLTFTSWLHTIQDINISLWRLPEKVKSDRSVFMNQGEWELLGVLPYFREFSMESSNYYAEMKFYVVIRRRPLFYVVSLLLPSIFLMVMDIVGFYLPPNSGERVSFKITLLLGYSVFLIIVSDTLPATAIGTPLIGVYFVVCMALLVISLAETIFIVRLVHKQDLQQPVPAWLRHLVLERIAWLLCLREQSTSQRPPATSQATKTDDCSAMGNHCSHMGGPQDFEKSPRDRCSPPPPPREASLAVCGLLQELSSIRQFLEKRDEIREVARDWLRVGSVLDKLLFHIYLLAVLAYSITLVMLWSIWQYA
# Description: as §1
# [4] = target: Z α1‐antitrypsin (Homo sapiens, UniProt P01009, E366K); assay: Association kinetics by intrinsic tryptophan fluorescence (stopped flow), Z α1‐antitrypsin; format: binding; set-up: purified from the plasma of Z α1‐antitrypsin homozygotes; from tissue; host or cells: human plasma of Z α1-antitrypsin homozygotes
# Source text: The shape of the curves and native mass spectrometry (not shown) are consistent with a single high‐affinity compound binding site. No binding of the fluorescent derivative to polymers of Z α1‐antitrypsin was observed, indicating conformational selectivity for the monomeric protein (Fig 1D). The rate of interaction of the compound with the target was monitored through changes in intrinsic tryptophan fluorescence (Dafforn et al, 1999); this property was used to determine the second‐order association rate constants for GSK716 binding to Z (4.1 × 10^4 M^−1 s^−1) and M α1‐antitrypsin (2.1 × 10^2 M^−1 s^−1; Fig 1E and F). […] Therefore, the selectivity of the compound for Z over M α1‐antitrypsin is dominated by the difference in the rate of association rather than dissociation.
# Kinetic parameters of GSK716 binding to M, Z, S (Glu264Val) and Baghdad (Ala336Pro) (Haq et al, 2016) α1‐antitrypsin were measured by detecting intrinsic tryptophan fluorescence of the protein (excitation at 280 nm and detection of emission at 320 nm) on a stopped flow apparatus (Applied Photophysics) (Kim & Yu, 1996; Dafforn et al, 1999). A competition assay for binding to M α1‐antitrypsin and Z α1‐antitrypsin and Z α1‐antitrypsin polymers (Lomas et al, 1993; Irving et al, 2011; Haq et al, 2013), based on an Alexa488‐labelled analogue of GSK716 (A488‐GSK716), was used to determine the binding affinity of test compounds.
# Z α1‐antitrypsin, sequence (P01009 25-418 E366K): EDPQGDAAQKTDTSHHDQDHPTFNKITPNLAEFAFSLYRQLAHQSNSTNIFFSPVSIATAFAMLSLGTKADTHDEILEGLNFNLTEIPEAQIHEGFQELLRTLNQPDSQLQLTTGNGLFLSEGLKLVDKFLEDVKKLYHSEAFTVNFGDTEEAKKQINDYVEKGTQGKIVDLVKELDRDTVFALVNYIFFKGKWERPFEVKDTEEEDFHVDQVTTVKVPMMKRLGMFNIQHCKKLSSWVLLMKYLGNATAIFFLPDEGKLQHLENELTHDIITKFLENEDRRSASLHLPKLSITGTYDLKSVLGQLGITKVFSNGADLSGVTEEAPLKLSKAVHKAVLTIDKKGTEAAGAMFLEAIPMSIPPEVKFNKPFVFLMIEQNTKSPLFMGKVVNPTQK
# MRGPRX2, sequence (Q96LB1 whole entry, species assumed): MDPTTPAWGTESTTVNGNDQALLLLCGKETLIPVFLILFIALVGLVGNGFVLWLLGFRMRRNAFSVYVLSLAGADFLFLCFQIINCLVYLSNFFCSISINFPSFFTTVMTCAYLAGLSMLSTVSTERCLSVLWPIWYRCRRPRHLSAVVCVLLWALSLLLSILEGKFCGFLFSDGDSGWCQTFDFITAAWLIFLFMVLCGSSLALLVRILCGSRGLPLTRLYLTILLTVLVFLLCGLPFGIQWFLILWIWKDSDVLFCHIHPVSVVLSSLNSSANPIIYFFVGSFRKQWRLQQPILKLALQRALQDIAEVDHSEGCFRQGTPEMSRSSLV
smiles,measurement,setting,value
CCC[C@@H](NC(=O)c1cccc2c1CC(=O)N2)[C@@H](O)c1cccc(F)c1C [GSK716],formation of soluble and insoluble polymers,[1],significantly reduced
same,EC50,[2],> 100 µM
same,EC50,[3],> 50.1 µM
same,IC50,[3],31.6 µM
same,time of change in Z α1‐antitrypsin fluorescence on association (faster than dead‐time of the apparatus),"[4]; 10 µM GSK716, 0.2 mg/ml protein",< 10 s
same,koff,"[4]; Z α1‐antitrypsin, calculated from association rate constant and affinity, read-out: first‐order dissociation rate constant",6.1e-05 s⁻¹
same,kon,"[4]; Z α1‐antitrypsin, read-out: second‐order association rate constant",41000 M⁻¹ s⁻¹
